Laboratory results: PubChem BioAssay AID2060610 (Molecular Pharmacology Branch, DTP, NCI, 2025)
Values joined by “and” are separate entries in the source; they are usually repeats but may differ in a detail not shown here. Equal entries are not always repeated.

Tested on: 616215-338-R-J1-PDC complex spheroids, viability % test/control
Experiment: Anticancer human tumor 616215-338-R-J1-PDC patient-derived colon adenocarcinoma cell line growth inhibition [CLK]
Settings: for viability, T/C: stronger effect = lower value
Text: A high-throughput screen of multi-cell type tumor spheroids was designed to identify active combinations of […] and targeted small molecules. Complex spheroids include a stromal component modeled by human endothelial cells (HUVEC) and fibroblasts modeled by human mesenchymal stem cells (MSCs). The concentration ranges selected for each drug and investigational agent were based upon clinically achievable concentrations if the clinical Cmax of the agent was known.
Compounds. The drugs and investigational agents: cirtuvivint (SM08502; NSC835563), CC-671 (NSC850746), vemurafenib (NSC761431), tapotoclax (NSC804041), sotorasib (NSC818433), adagrasib (NSC831453), MRTX-1133 (NSC836407), BAY2416964 (NSC825713), copanlisib (NSC816437), inavolisib (NSC800729), abemaciclib (NSC768073), osimertinib (NSC779217), entinostat (NSC756642), eltanexor (KPT-8602, NSC794443), venetoclax (NSC766270), ceralasertib (NSC777638), bortezomib (NSC756655), olaparib (NSC753686), talazoparib (NSC767125), alisertib (NSC759677), peposertib (NSC802822), gemcitabine (NSC613327), 5-fluorouracil (NSC19893), SN-38 (NSC673596), oxaliplatin (NSC266046), paclitaxel (NSC125973), and doxorubicin (NSC123127), were obtained from the National Cancer Institute (NCI) Developmental Therapeutics Program Chemical Repository. The FDA-approved anticancer drug set is available from the Developmental Therapeutics Program at https://dtp.cancer.gov/organization/dscb/obtaining/available plates.htm. […] The stock solutions were prepared in dimethyl sulfoxide (DMSO, Sigma-Aldrich, St. Louis, MO, cat. D2650), except for the platinum complexes which were prepared in saline (Quality Biological, Gaithersburg, MD, cat. 114-055-101), at 800-fold the tested concentration and stored at -70 degrees C prior to their use. All drugs and investigational agents were tested over a range starting from a high concentration at or near the clinical Cmax and decreasing in half-log increments. If the clinical Cmax for an agent had not been determined, the highest concentration tested was 10 microM.
Cell Culture. All cells were maintained in an incubator at 37 degrees C and 5% CO2 with 95% humidity. The PDC lines were cultured according to standard operating procedures established by the NCI PDMR. Briefly, all PDCs were thawed and cultured in Matrigel-coated flasks prepared with a working solution of 1X Ham's F-12 nutrient mix, without supplementation (Invitrogen, Waltham, MA, cat. 11765054), 100 U/mL penicillin-streptomycin (Invitrogen, cat. 15140122), and 2.5% Matrigel (Corning Inc., Corning, NY, cat. 354248) for the first three passages. The 947758-054-R-J2-PDC line was cultured in 6B/Colon 1A media, which includes advanced DMEM/F-12 (Thermo Fisher Scientific, cat. 12634028), 10 mM HEPES (Thermo Fisher Scientific, cat. 15630080), 1X GlutaMAX supplement (Thermo Fisher Scientific, cat. 35050061), 0.1 mg/mL primocin (InvivoGen, cat. ant-pm-2), 10% defined fetal bovine serum, heat inactivated (HyClone Laboratories Inc., cat. SH30070.03HI), 1.25 mM N-Acetyl-L-cysteine (Sigma-Aldrich, cat. A9165), 10 mM nicotinamide (Sigma-Aldrich, cat. N0636), 1X B-27 supplement (Thermo Fisher Scientific, cat. 17504044), 1X N-2 supplement (Thermo Fisher Scientific, cat. 17502048), and 10 microM Y-27632 dihydrochloride (Tocris Bioscience, cat. 1254). The 876862-298-R-J1-PDC was cultured in 6E media, which includes all 6B/Colon 1A media components plus 50% L-WRN conditioned media (ATCC, cat. CRL-3276), 50 ng/mL recombinant human EGF recombinant protein (hEGF; Thermo Fisher Scientific, cat. PHG0311), 10 ng/mL recombinant human fibroblast growth factor 10 (hGFG-10; PeproTech, cat. 100-26), 1 ng/mL recombinant human fibroblast growth factor 2 (hFGF-2; PeproTech, cat. 100-18B), and 1 µM prostaglandin E2 (PGE2; Tocris, cat. 2296). The 227483-062-R1-J1-PDC line was cultured in Panc media, containing all 6E components except hFGF-2, with the addition of 500 nM SB-431542 (Selleckchem, cat. S1067) and 10 nM gastrin (Tocris, cat. 3006). […]
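Note: spheroids exposed to agents for 7 days.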
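Throughout, for viability, T/C: 100% = DMSO vehicle wells.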

## COC1C=CCC(C)C(C)S(=O)(=O)NC(=O)c2ccc3c(c2)N(CC2CCC21)CC1(CCCc2cc(Cl)ccc21)CO3 (stereo unspecified) + CNC(=O)c1ccc(Nc2nc(OC3CCCC3)c3c(-c4ccc5nc(C)oc5c4)c[nH]c3n2)c(OC)c1
Curve of first compound, second compound 0.0316 µM
  IC50: > 10000 nM
Curve of first compound, second compound 0.1 µM
  IC50: 4640 nM
Curve of first compound, second compound 0.316 µM
  IC50: < 31.6 nM
Curve of first compound, second compound 1 µM
  IC50: < 31.6 nM
Curve of first compound, second compound 3.16 µM
  IC50: < 31.6 nM
Curve of first compound, second compound 10 µM
  IC50: < 31.6 nM
Second compound 0.0316 µM, first compound 0.0316 µM
  viability, T/C: 95.9%
Second compound 0.0316 µM, first compound 0.1 µM
  viability, T/C: 95.1%
Second compound 0.0316 µM, first compound 0.316 µM
  viability, T/C: 94%
Second compound 0.0316 µM, first compound 1 µM
  viability, T/C: 86.2%
Second compound 0.0316 µM, first compound 3.16 µM
  viability, T/C: 104%
Second compound 0.0316 µM, first compound 10 µM
  viability, T/C: 52.3%
Second compound 0.1 µM, first compound 0.0316 µM
  viability, T/C: 56.5%
Second compound 0.1 µM, first compound 0.1 µM
  viability, T/C: 57%
Second compound 0.1 µM, first compound 0.316 µM
  viability, T/C: 57.6%
Second compound 0.1 µM, first compound 1 µM
  viability, T/C: 60.9%
Second compound 0.1 µM, first compound 3.16 µM
  viability, T/C: 59%
Second compound 0.1 µM, first compound 10 µM
  viability, T/C: 34%
Second compound 0.316 µM, first compound 0.0316 µM
  viability, T/C: 37.2%
Second compound 0.316 µM, first compound 0.1 µM
  viability, T/C: 43.9%
Second compound 0.316 µM, first compound 0.316 µM
  viability, T/C: 33%
Second compound 0.316 µM, first compound 1 µM
  viability, T/C: 25.7%
Second compound 0.316 µM, first compound 3.16 µM
  viability, T/C: 19.6%
Second compound 0.316 µM, first compound 10 µM
  viability, T/C: 20.4%
Second compound 1 µM, first compound 0.0316 µM
  viability, T/C: 35.1%
Second compound 1 µM, first compound 0.1 µM
  viability, T/C: 39.7%
Second compound 1 µM, first compound 0.316 µM
  viability, T/C: 34.3%
Second compound 1 µM, first compound 1 µM
  viability, T/C: 26.4%
Second compound 1 µM, first compound 3.16 µM
  viability, T/C: 21.5%
Second compound 1 µM, first compound 10 µM
  viability, T/C: 17.1%
Second compound 3.16 µM, first compound 0.0316 µM
  viability, T/C: 41.6%
Second compound 3.16 µM, first compound 0.1 µM
  viability, T/C: 41%
Second compound 3.16 µM, first compound 0.316 µM
  viability, T/C: 34.5%
Second compound 3.16 µM, first compound 1 µM
  viability, T/C: 27.2%
Second compound 3.16 µM, first compound 3.16 µM
  viability, T/C: 22.8%
Second compound 3.16 µM, first compound 10 µM
  viability, T/C: 20.3%
Second compound 10 µM, first compound 0.0316 µM
  viability, T/C: 40.7%
Second compound 10 µM, first compound 0.1 µM
  viability, T/C: 33.7%
Second compound 10 µM, first compound 0.316 µM
  viability, T/C: 29.8%
Second compound 10 µM, first compound 1 µM
  viability, T/C: 26.5%
Second compound 10 µM, first compound 3.16 µM
  viability, T/C: 19.6%
Second compound 10 µM, first compound 10 µM
  viability, T/C: 17.3%

## COc1cccc2c1C(=O)c1c(O)c3c(c(O)c1C2=O)CC(O)(C(=O)CO)CC3OC1CC(N)C(O)C(C)O1 (stereo unspecified)
Compound 0.0316 µM
  viability, T/C: 102% and 112%
Compound 0.1 µM
  viability, T/C: 45.9% and 64.2%
Compound 0.316 µM
  viability, T/C: 40.4% and 49.8%
Compound 1 µM
  viability, T/C: 24% and 41.3%
Compound 3.16 µM
  viability, T/C: 0.74% and 0.78%
Compound 10 µM
  viability, T/C: 0.16% and 0.24%
Curve of compound
  IC50: 142 nM and 299 nM

## O=C(c1cc(Cc2n[nH]c(=O)c3ccccc23)ccc1F)N1CCN(C(=O)C2CC2)CC1
Compound 0.0316 µM
  viability, T/C: 96.4% and 102%
Compound 0.1 µM
  viability, T/C: 96.1% and 94.5%
Compound 0.316 µM
  viability, T/C: 87.9% and 96.6%
Compound 1 µM
  viability, T/C: 88.2% and 93.6%
Compound 3.16 µM
  viability, T/C: 106% and 99.5%
Compound 10 µM
  viability, T/C: 97.4% and 99.5%
Curve of compound
  IC50: > 10000 nM
